Patent US20240341301A1 (The Regents of the University of Michigan, priority 2023, published 2024)

Assays:
murine donor hearts [1] = test: Murine donor heart tissue staining and Western blot (oxidative stress, antioxidant proteins, cell death); set-up: species or system mouse; settings: donor mice treated with 4-OI
Experimental: (§1) Male and female WT or Irg1^−/− mice (Jackson laboratories, Bar Harbor, ME) were anesthetized intraperitoneally with 80 mg/kg ketamine and 5 mg/kg xylazine, anticoagulated with heparin (2,000 U/kg iv), and the heart was rapidly exposed through a sternal incision. The aorta was cannulated and retrograde perfused in-situ with HTK solution±HDAC inhibitors. After cannulation, the heart dissected free, the left atrium was opened. For 4-OI (Cayman Chemical, 25374) experiments, donor mice were treated 4-OI (dissolved in 40% β-Cyclodextrin, 50 mg/kg intraperitoneally) or vehicle control (40% β-Cyclodextrin intraperitoneally) 2 hours prior to donor heart procurement. After dissection, the heart was stored at 4° C. with HTK or HTK with VPA for a pre-designated duration. The hearts were then mounted on a Radnoti mouse Langendorff apparatus (ADInstruments inc., Colorado Springs, CO) in constant-pressure mode (˜70 mmHg) with a modified Krebs-Henseleit buffer (KHB; in mM: 118 NaCl, 4.7 KCl, 1.25 CaCl2), 1.66 MgSO4, 24.88 NaHCO3, 1.18 KH2PO4, 5.55 glucose, and 2.0 Na-pyruvate). A balloon was placed in the LV through the left atrium and left ventricular diastolic pressure was set to ˜8 mmHg at initiation. The heart was perfused with modified Krebs-Henseleit buffer for 30 min to stabilize and then hemodynamics measurements were recorded. Myocardial temperature was maintained at 37° C. LabChart software (ADInstruments inc., Colorado Springs, CO) was used to record ventricular function, perfusion pressures, cardiac chamber temperature and myocardial temperature. After perfusing the heart for 60 minutes, the heart was removed from the ex-vivo perfusion apparatus for specimen collection. Tissue was immediately placed in liquid N2 or treated with 4% formalin.

[2] = test system: HL-1 murine cardiomyocytes; test: HL-1 cardiomyocytes in HTK under normoxic or hypoxic conditions, Western blot; assay type: cell-based, mouse; settings: for HO1 protein abundance / NRF2 / SOD1 protein abundance: normoxic and hypoxic conditions
Experimental: HL-1 murine cardiomyocytes cells (Sigma-Aldrich, SCC065) were cultured in Claycomb Medium (Sigma-Aldrich, 51800C). […] The medium was then changed to cold HTK solution and incubated in an hypoxic incubation chamber (Stem cell technologies). The chamber cold hypoxic conditions consist premixed of 1% Oxygen and 5% Carbon dioxide gas (Cryogenic gases, Detroit MI) with cell culture at 4° C. for 2 hours. After cold preservation culture, the medium was changed to 37° C. DMEM at atmospheric conditions and cells were incubated for an additional 2 hours. Cell lysates were then collected for Western blot analysis.

murine donor hearts [3] = test: Murine ex-vivo heart perfusion after cold preservation; set-up: species or system mouse; settings: for ex vivo donor heart contractility / ex vivo donor heart relaxation: HDAC inhibitor in HTK, 16 hours cold preservation
Experimental: as §1

H9C2 cardioblast = test: Doxorubicin-treated H9C2 cardioblast; assay type: cell-based; settings: 1 μM doxorubicin
Experimental: FIG. 18. FIG. 4. […] The doxorubicin-induced cell death were evaluated by cleaved caspase 3 using western blot.
FIG. 19. FIG. 4. […] The 5-hmC level were detected using immunostaining.

[4] = cited from earlier work
Irg1 = Irg1 mRNA transcript expression in preserved murine donor hearts; set-up: species or system mouse; settings: 16 hours preservation without reperfusion and during ex vivo perfusion
Experimental: as §1

mice = test: Doxorubicin-induced cardiotoxicity in mice; assay type: in vivo, mouse; settings: 5 mg/Kg doxorubicin for 5 weeks, I.P. every 3.5 days
Experimental: FIG. 16. […] 6-week mice were treated with 5 mg/Kg doxorubicin for 5 weeks. […] There are improved ejection fraction, stroke volume, and increased heart and lung weight in itaconate-treated groups compared to saline-treated groups.
FIG. 17. […] 6-week mice were treated with 5 mg/Kg doxorubicin for 5 weeks.

[5] = donor mice treated 4-OI 50 mg/kg intraperitoneally 2 hours prior to procurement, 16 hours of preservation, ex vivo perfusion
[6] = compared to saline-treated groups

What does the source list for `C=C(CC(=O)OCCCCCCCC)C(=O)O` [4-OI, 4-octyl itaconate]?
NRF2 nuclear translocation in cardiac tissue (murine donor hearts [1]): increased; oxidative DNA damage (8-OHdG fluorescence) (murine donor hearts [1]): reduced; HO1 protein abundance [2]: enhanced; NRF2 [2]: no changes; SOD1 protein abundance [2]: enhanced; cardiac contractility (murine donor hearts [3]; [5]): improved; cardiac relaxation (murine donor hearts [3]; [5]): improved

With `COc1cccc2c1C(=O)c1c(O)c3c(c(O)c1C2=O)C[C@@](O)(C(=O)CO)C[C@@H]3O[C@H]1C[C@H](N)[C@H](O)[C@H](C)O1` [Doxorubicin, doxorubicin] as the compound, how does the 5-hmC level (H9C2 cardioblast; immunostaining) read?
Its 5-hmC level is “induces accumulation”.

Which results are given for `O=C(CCCCCCC(=O)Nc1ccccc1)NO` [SAHA, Suberoylanilide hydroxamic acid]?
water solubility [4]: poorly water soluble; ex vivo donor heart contractility (murine donor hearts [3]): improved; ex vivo donor heart relaxation (murine donor hearts [3]): improved; Irg1 transcript expression (Irg1): increased

What does the source list for `CC(/C=C/C(=O)NO)=C\[C@@H](C)C(=O)c1ccc(N(C)C)cc1` [TSA, Trichostatin A]?
water solubility [4]: poorly water soluble; ex vivo donor heart contractility (murine donor hearts [3]): improved; ex vivo donor heart relaxation (murine donor hearts [3]): improved; Irg1 transcript expression (Irg1): increased

Which “cardiomyocyte apoptosis (cleaved caspase 3, western blot)” value (H9C2 cardioblast; 2 mM itaconate, 18 hours) does the source give for `C=C(CC(=O)O)C(=O)O` [itaconate] here?
Its value is “reduced”.

What about the “doxorubicin induced 5-hmC accumulation” value (H9C2 cardioblast; 2 mM itaconate, immunostaining) of the same compound?
Its value is “reduce”.

What about the “antioxidant expression (HO1, SOD1)” value ([2]; itaconate 10 mM in HTK, normoxic (20% O2) and hypoxic (1% O2), 2 hours) of the same compound?
The value was “increased”.

And the HO1 protein abundance [2]?
The HO1 protein abundance was “enhanced”.

And the NRF2 [2]?
The NRF2 was “no changes”.

What about the SOD1 protein abundance [2] of the same compound?
The SOD1 protein abundance was “enhanced”.

And the “serum cTnI level” value (mice)?
The value was “reduced”.

And the ejection fraction (mice; [6])?
The ejection fraction was “improved”.

What about the “heart and lung weight” value (mice; [6]) of the same compound?
The value was “increased”.

And the stroke volume (mice; [6])?
The stroke volume was “improved”.

And the “murine donor heart function” value (murine donor hearts [3]; after 16 hours of storage)?
Its value is “improved”.
